According to ChEMBL document CHEMBL5154706, “Synthesis of lathyrane diterpenoid nitrogen-containing heterocyclic derivatives and evaluation of their anti-inflammatory activities” (Bioorg Med Chem, 2022):
Active and inactive are the calls of the source. The rule behind the calls is not given here.

Legend:
RAW264.7 [1] = test: Antiinflammatory activity against mouse RAW264.7 cells assessed as inhibition of LPS-induced ROS generation at 0.25 to 2 uM preincubated for 3 hrs followed by LPS stimulation and measured after 12 hrs by DCFH-DA probe based flow cytometry; format: functional, cell-based; conditions: dose 0.25-2 µM, time 15.0 hrs
RAW264.7 [2] = test: Antiinflammatory activity against mouse RAW264.7 cells assessed as inhibition of LPS-induced NO production preincubated for 3 hrs followed by LPS stimulation and measured after 24 hrs by Griess reagent based assay; format: functional, cell-based
RAW264.7 [3] = test: Antiinflammatory activity against LPS-induced mouse RAW264.7 cells assessed as decrease in Keap1 expression preincubated for 3 hrs followed by LPS stimulation and measured after 24 hrs by Western blot analysis; format: functional, cell-based; conditions: dose 0.25-2 µM, time 27.0 hrs, DDE = dose-dependent effect
RAW264.7 [4] = test: Antiinflammatory activity against LPS-induced mouse RAW264.7 cells assessed as increase in HO-1 expression preincubated for 3 hrs followed by LPS stimulation and measured after 24 hrs by Western blot analysis; format: functional, cell-based; conditions: dose 0.25-2 µM, time 27.0 hrs, DDE = dose-dependent effect
RAW264.7 [5] = test: Antiinflammatory activity against LPS-induced mouse RAW264.7 cells assessed as increase in Nrf2 expression preincubated for 3 hrs followed by LPS stimulation and measured after 24 hrs by Western blot analysis; format: functional, cell-based; conditions: dose 0.25-2 µM, time 27.0 hrs, DDE = dose-dependent effect
[6] = molecular target: T1, Nuclear factor erythroid 2-related factor 2 (Mus musculus) (UniProt Q60795); test: Induction of LPS-induced Nrf2 nuclear translocation in mouse RAW264.7 cells at 2 uM preincubated for 3 hrs followed by LPS stimulation and measured after 12 hrs by immunofluorescence staining based confocal laser scanning microscopy; format: cell-based; conditions: time 15.0 hrs
T1 sequence (whole entry): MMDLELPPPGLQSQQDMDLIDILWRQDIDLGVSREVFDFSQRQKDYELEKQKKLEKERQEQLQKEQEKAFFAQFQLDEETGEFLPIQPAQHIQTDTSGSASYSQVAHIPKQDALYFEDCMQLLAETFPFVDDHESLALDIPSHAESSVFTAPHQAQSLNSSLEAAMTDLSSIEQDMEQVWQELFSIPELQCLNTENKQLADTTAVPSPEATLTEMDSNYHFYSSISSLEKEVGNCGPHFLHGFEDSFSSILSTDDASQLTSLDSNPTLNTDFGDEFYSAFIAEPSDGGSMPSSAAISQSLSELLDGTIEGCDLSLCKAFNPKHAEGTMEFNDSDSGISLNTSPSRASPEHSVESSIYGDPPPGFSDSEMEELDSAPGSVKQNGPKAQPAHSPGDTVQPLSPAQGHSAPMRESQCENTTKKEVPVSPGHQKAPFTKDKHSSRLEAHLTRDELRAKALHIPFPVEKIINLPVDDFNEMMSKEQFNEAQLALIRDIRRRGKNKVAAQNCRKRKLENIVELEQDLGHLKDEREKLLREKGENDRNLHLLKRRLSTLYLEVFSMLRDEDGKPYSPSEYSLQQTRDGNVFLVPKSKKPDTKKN

RAW264.7 [7] = test: Antiinflammatory activity against LPS-induced mouse RAW264.7 cells assessed as increase in intrinsic nitric oxide level at 0.5 ug/ml measured after 3 hrs by Griess reagent based assay; format: functional, cell-based; conditions: dose 0.5 µg/ml

IC50 (RAW264.7 [2]): 380 nM | Activity [6]: Active
Compound: C=C1CC[C@H]2[C@@H](/C=C(\C)C(=O)[C@@]3(O)C[C@H](C)[C@H](O)[C@@H]3[C@H]1OC(=O)CCC(=O)OCCOCCOc1no[n+]([O-])c1S(=O)(=O)c1ccccc1)C2(C)C
inhibition (RAW264.7 [1]): Active | Activity (RAW264.7 [3]): Dde | Activity (RAW264.7 [4]): Dde | Activity (RAW264.7 [5]): Dde | Activity (RAW264.7 [7]): Active
